Experimental data reported in US20240254082A1, “Substituted Isoindoline-1, 3-diketone PDE4 Inhibitor and Pharmaceutical Application Thereof” (SUZHOU INTRAGRAND PHARMA CO., LTD, priority 2021, published 2024).
Where two headings read alike, the source gives them in different places.

Key:
TNF-α = assay: Inhibition of TNF-α induced in human peripheral blood mononuclear cells; type: cell-based; settings: read-out: IC50 (nM), cytokine TNF-α
IL-2 = assay: Inhibition of IL-2 induced in human peripheral blood mononuclear cells; type: cell-based; settings: human PBMC, stimulus SEB; read-out: IC50 (nM), cytokine IL-2
Experimental: 8. Inhibitory assay of inflammatory factors TNF-α, IL-2, INF-γ
Determination of TNF-α, IL-2 and INF-γ induced by LPS/SEB in human peripheral blood mononuclear cells:
1. The purchased PBMC frozen cells were thawed at 37° C., transferred to RMPI1640 medium, and incubated overnight at 37° C. in an incubator containing 5% of CO2.
2. The next day, the cells were planked at 2×10^5 cells/well, with 100 μL per well.
4. LPS stimulus was added to each well at a final concentration of 10 ng/ml.
5. Incubation was carried out overnight at […] in an incubator containing 5% of CO2.
6. On the third day, the cell culture supernatant was collected, and cytokine assay was performed using an MSD method.

INF-γ = assay: Inhibition of INF-γ induced in human peripheral blood mononuclear cells; type: cell-based
PDE1C = PDE1C (Homo sapiens, UniProt Q14123); assay: Selective inhibitory activity assay, PDE1C; type: biochemical; settings: read-out: Inhibition rate (%) of PDE1C
Sequence of PDE1C (Q14123 whole entry, species assumed): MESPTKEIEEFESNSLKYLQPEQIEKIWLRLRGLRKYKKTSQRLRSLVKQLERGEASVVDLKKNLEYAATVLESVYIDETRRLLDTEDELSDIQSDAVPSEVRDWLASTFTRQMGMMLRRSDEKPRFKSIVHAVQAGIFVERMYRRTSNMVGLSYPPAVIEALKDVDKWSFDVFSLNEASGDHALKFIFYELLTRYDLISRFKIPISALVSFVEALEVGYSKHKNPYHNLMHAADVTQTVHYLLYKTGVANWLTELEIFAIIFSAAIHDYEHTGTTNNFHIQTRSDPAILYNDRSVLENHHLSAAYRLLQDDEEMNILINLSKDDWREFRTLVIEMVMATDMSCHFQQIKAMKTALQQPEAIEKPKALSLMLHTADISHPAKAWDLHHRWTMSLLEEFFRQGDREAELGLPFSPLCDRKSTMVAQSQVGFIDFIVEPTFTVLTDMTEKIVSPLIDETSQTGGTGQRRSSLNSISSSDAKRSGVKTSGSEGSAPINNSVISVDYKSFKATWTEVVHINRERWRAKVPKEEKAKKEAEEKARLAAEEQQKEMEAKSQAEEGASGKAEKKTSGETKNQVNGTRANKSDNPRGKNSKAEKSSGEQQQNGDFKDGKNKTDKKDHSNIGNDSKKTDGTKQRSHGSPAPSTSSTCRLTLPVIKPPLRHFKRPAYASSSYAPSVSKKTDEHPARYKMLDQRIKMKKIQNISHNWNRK
Experimental: (§1) 7. Selective inhibitory activity assay for PDE1, 2, 3, 5, 7, 10 and 11 enzymes
(§2) The selective specificity of compounds for PDE4 was assessed by assaying single concentrations of the compounds. For example, PDE1a enzyme, PDElc enzyme, PDE2a enzyme, PDE3a enzyme, PDE3b enzyme, PDE5a1 enzyme, PDE7a enzyme, PDE7b enzyme, PDE10a1 enzyme and PDE11a4 enzyme were tested. The selective inhibitory effects of different compounds on the enzymatic activities of PDEIC, PDE2A, PDE3B, PDE5A1, PDE7A, and PDE10A1 at concentrations of 10 μM and 1 μM, respectively, are shown in the table below: […]

PDE2A = PDE2A (Homo sapiens, UniProt O00408); assay: Selective inhibitory activity assay, PDE2A; type: biochemical; settings: read-out: Inhibition rate (%) of PDE2A
Sequence of PDE2A (O00408 whole entry, species assumed): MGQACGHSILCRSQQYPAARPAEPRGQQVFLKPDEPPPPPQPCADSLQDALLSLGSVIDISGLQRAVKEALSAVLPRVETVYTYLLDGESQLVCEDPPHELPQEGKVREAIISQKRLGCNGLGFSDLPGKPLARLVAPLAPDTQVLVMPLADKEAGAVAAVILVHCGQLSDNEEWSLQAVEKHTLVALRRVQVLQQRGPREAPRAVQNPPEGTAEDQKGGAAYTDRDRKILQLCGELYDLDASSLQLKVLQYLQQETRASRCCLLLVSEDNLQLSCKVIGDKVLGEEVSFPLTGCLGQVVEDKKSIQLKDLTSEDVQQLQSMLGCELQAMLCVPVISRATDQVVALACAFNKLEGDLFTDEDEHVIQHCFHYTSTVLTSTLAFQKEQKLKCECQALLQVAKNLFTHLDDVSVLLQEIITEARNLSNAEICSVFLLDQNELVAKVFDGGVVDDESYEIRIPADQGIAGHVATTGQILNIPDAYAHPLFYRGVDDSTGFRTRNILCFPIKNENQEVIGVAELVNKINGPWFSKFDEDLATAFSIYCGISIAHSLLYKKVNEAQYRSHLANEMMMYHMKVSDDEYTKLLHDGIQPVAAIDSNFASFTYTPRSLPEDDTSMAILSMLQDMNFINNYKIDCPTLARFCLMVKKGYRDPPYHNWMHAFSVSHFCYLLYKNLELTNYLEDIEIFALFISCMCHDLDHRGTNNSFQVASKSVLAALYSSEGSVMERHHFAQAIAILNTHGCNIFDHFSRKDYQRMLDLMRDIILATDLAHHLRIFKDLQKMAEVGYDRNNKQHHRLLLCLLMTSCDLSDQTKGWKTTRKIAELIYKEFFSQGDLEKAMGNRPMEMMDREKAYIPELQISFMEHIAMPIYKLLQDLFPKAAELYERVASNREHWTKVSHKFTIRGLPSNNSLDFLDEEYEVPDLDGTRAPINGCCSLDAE
Experimental: as §1, §2

PDE3B = PDE3B (Homo sapiens, UniProt Q13370); assay: Selective inhibitory activity assay, PDE3B; type: biochemical; settings: read-out: Inhibition rate (%) of PDE3B
Sequence of PDE3B (Q13370 whole entry, species assumed): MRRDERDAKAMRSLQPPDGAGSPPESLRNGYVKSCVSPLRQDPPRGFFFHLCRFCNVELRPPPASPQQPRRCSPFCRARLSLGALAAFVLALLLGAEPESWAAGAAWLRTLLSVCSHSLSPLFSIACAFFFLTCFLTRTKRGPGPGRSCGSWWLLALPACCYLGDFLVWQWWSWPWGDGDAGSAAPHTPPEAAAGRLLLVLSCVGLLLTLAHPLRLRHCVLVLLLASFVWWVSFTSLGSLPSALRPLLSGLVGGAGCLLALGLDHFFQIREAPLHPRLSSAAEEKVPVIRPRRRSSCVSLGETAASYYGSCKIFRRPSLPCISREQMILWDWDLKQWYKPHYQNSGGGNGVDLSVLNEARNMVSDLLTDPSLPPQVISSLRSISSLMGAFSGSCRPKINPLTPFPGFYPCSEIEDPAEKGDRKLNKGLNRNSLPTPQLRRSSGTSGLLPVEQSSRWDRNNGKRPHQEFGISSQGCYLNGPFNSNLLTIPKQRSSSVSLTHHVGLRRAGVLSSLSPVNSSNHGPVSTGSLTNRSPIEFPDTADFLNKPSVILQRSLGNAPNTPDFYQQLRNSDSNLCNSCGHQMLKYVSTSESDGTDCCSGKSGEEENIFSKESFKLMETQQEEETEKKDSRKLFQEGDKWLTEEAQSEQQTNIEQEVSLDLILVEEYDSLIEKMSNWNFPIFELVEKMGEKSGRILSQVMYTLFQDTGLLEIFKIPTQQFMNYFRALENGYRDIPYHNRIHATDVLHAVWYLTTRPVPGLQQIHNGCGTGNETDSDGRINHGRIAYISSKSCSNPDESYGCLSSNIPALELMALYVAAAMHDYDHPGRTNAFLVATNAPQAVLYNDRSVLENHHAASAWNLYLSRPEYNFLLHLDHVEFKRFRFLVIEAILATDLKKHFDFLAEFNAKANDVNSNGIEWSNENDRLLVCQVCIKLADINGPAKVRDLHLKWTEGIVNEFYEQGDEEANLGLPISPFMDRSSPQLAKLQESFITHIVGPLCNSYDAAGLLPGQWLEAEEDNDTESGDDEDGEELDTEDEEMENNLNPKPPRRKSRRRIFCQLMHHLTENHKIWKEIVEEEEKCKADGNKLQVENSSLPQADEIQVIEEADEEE
Experimental: as §1, §2

PDE5A1 = PDE5A1 (Homo sapiens, UniProt O76074); assay: Selective inhibitory activity assay, PDE5A1; type: biochemical; settings: 1 μM; read-out: Inhibition rate (%) of PDE5A1
Experimental: as §1, §2

PDE7A = PDE7A (Homo sapiens, UniProt Q13946); assay: Selective inhibitory activity assay, PDE7A; type: biochemical; settings: read-out: Inhibition rate (%) of PDE7A
Sequence of PDE7A (Q13946 whole entry, species assumed): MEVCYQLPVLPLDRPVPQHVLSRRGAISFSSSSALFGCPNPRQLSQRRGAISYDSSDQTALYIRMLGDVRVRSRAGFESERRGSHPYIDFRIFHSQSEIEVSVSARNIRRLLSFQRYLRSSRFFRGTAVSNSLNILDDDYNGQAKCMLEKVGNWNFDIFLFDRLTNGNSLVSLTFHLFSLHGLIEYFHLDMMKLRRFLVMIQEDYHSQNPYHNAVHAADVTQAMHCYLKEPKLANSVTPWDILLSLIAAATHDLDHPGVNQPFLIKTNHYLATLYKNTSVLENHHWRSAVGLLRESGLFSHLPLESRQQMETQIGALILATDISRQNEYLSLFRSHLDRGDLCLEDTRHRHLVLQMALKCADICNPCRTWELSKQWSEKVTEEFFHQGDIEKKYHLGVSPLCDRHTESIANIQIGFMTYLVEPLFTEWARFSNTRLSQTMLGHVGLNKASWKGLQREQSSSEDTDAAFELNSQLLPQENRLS
Experimental: as §1, §2

PDE10A1 = PDE10A1 (Homo sapiens, UniProt Q9Y233); assay: Selective inhibitory activity assay, PDE10A1; type: biochemical; settings: read-out: Inhibition rate (%) of PDE10A1
Sequence of PDE10A1 (Q9Y233 1-779 isoform Q9Y233-1, species assumed): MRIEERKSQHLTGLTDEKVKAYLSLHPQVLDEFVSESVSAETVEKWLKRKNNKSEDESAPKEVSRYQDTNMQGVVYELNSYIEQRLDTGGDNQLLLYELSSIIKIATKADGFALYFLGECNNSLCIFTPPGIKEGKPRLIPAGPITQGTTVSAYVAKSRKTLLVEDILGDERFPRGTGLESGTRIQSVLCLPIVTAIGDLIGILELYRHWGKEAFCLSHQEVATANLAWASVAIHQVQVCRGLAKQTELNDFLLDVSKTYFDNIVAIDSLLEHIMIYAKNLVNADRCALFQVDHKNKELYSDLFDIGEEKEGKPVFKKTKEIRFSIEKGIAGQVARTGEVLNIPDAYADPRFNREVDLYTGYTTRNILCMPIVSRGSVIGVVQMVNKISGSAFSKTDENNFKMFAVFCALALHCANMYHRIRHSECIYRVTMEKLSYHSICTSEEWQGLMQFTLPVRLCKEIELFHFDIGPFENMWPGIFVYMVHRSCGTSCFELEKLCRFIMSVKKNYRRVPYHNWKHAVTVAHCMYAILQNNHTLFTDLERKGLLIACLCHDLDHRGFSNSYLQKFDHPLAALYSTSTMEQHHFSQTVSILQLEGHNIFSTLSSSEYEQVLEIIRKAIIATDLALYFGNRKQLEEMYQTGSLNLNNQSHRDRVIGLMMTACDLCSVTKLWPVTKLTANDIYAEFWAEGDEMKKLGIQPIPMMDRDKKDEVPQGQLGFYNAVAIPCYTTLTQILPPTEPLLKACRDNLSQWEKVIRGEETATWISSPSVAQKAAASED
Experimental: as §1, §2

[1] = Homo sapiens, PBMC, read-out: IC50 (nM), cytokine INF-r, human PBMC, stimulus SEB

SMILES	IC50 (TNF-α; human PBMC, stimulus LPS) [nM]	IC50 (IL-2) [nM]	IC50 (INF-γ; [1]) [nM]	IC50 (INF-γ; human PBMC, stimulus LPS, read-out: IC50 (nM), cytokine INF-r) [nM]	inhibition at 1 µM (PDE1C; 1 μM) [%]	inhibition at 10 µM (PDE1C; 10 μM) [%]	inhibition at 1 µM (PDE2A; 1 μM) [%]	inhibition at 10 µM (PDE2A; 10 μM) [%]	inhibition at 1 µM (PDE3B; 1 μM) [%]	inhibition at 10 µM (PDE3B; 10 μM) [%]	inhibition at 1 µM (PDE5A1) [%]	inhibition at 1 µM (PDE7A; 1 μM) [%]	inhibition at 10 µM (PDE7A; 10 μM) [%]	inhibition at 1 µM (PDE10A1; 1 μM) [%]	inhibition at 10 µM (PDE10A1; 10 μM) [%]	IC50 (TNF-α; Homo sapiens, PBMC) [nM]	IC50 (INF-γ; Homo sapiens, PBMC, read-out: IC50 (nM), cytokine INF-r, human PBMC, stimulus LPS) [nM]
O=C(Nc1c(Cl)cncc1Cl)c1ccc(OC(F)F)c(OCC2CC2)c1 [Roflumilast]	2.83	14.7	10.9	1.4													
CCOc1cc([C@@H](CS(C)(=O)=O)N2C(=O)c3cccc(NC(C)=O)c3C2=O)ccc1OC [Example 0, Apremilast, reference compound]		110	77.8		7.77	37.1	2.95	2.35	2.44	1.56	3.97	9.41	11.1	0	-2.75	63.8	15.4
